Broadly, the EC50 is the concentration giving half of the maximal effect.

Assay [1] has as its target T1, 5-HT2A (Homo sapiens, UniProt P28223). Put plainly: Serotonin 5-HT2A in vitro cellular IPOne agonism assay. It is filed as cell-based. Details: host or cells: CHO-K1. The note with it: CHO-K1 cells, 60 min. As to the method:
Serotonin 5-HT2A In Vitro Cellular IPOne Agonism Assay. The 5-HT2A IPOne HTRF assay was performed at Epics Therapeutics S.A. (Belgium, FAST-0505I) using conventional methods. Briefly, CHO-K1 cells expressing human recombinant 5-HT2A receptor grown to mid-log phase in culture media without antibiotics were detached with PBS-EDTA, centrifuged, and resuspended in medium without antibiotics buffer. 20,000 cells are distributed in a 96 well plate and incubated overnight at 37° C. with 5% CO2.
For agonist testing, the medium was removed and 20 μl of assay buffer plus 20 μl of test compound or reference agonist were added in each well. The plate was incubated for 60 min. at 37° C. with 5% CO2.
After addition of the lysis buffer containing IP1-d2 and anti-IP1 cryptate detection reagents, plates were incubated 1-hour at room temperature, and fluorescence ratios were measured according to the manufacturer specification, with the HTRF kit.

Assay [2] addresses T1, 5-HT2A. Put plainly: Serotonin 5-HT2A in vitro radioligand binding competition assay. Set-up: purchased Epics Therapeutics S.A. (Belgium), contract assay FAST-0505B; host or cells: membrane extracts. The settings on record: [3H]-DOI radiotracer, membrane extracts, read-out: 5HT2A R[…] ACTIVITY
As to the method: Serotonin 5-HT2A In Vitro Radioligand Binding Competition Assay. The 5-HT2A radioligand binding competition assay was performed at Epics Therapeutics S.A. (Belgium, FAST-0505B) using conventional methods. Briefly, competition binding was performed in duplicate in the wells of a 96 well plate (Master Block, Greiner, 786201) containing binding buffer (optimized for each receptor), membrane extracts (amount of protein/well optimized for each receptor), radiotracer [^3H]-DOI (final concentration optimized for each receptor) and test compound. Nonspecific binding was determined by co-incubation with 200-fold excess of cold competitor. The samples were incubated in a final volume of 0.1 ml at a temperature and for a duration optimized for each receptor and then filtered over filter plates. Filters were washed six times with 0.5 ml of ice-cold washing buffer (optimized for each receptor) and 50 μl of Microscint 20 (Packard) were added in each well. The plates were incubated 15 min on an orbital shaker and then counted with a TopCount™ for 1 min/well.

Read-outs that look alike come from different tables or passages of the source. Where only a bound is given, the exact number is not on record here.

T1 sequence (P28223 whole entry): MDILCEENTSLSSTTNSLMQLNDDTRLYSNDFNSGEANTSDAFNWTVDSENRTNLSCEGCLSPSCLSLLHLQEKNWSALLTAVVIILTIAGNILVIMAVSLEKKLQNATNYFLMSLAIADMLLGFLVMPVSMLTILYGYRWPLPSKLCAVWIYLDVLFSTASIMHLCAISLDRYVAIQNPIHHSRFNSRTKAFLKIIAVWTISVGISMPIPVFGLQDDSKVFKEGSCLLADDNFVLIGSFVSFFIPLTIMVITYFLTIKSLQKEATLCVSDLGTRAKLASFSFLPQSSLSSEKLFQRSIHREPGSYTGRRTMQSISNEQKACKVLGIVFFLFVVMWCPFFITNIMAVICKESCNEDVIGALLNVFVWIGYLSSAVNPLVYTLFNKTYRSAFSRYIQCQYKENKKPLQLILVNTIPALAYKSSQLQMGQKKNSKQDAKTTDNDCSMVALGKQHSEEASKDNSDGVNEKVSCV

Molecule `COc1cccc2oc3c(c12)CNCCC3` [Compound 18, 10-methoxy-2,3,4,5-tetrahydro-1H-benzofuro[3,2-c]azepine] gave an EC50 in assay [1] (benzofurans) of 1 to 10 µM. Further, the IC50 in assay [2] (benzofurans) lay within 1 to 10 µM.

In assay [1] (benzofurans), `FC(F)(F)Oc1ccc2c3c(oc2c1)CCCNC3` [Compound 49, 8-(trifluoromethoxy)-2,3,4,5-tetrahydro-1H-benzofuro[3,2-c]azepine] registered an EC50 of 1 to 10 µM. The IC50 in assay [2] (benzofurans) was 1 to 10 µM.

`c1ccc2c3c(sc2c1)CCNCC3` [Compound 65, 2,3,4,5-tetrahydro-1H-benzo[4,5]thieno[2,3-d]azepine]: the EC50 in assay [1] (benzothiophenes) lay in the range of 0.101 to 1 µM. The IC50 in assay [2] (benzothiophenes) lay within 0.01 to 0.1 µM.

In the case of `c1ccc(COc2ccc3c4c(oc3c2)CCNCC4)cc1` [Compound 45, 8-(benzyloxy)-2,3,4,5-tetrahydro-1H-benzofuro[2,3-d]azepine], in assay [1] (benzofurans), the EC50 was 1 to 10 µM. Besides, in assay [2] (benzofurans), the IC50 was in the range of 1 to 10 µM.

With `COc1ccc2c3c(oc2c1)CCCN(CC(F)(F)F)C3` [Compound 11, 8-methoxy-2-(2,2,2-trifluoroethyl)-2,3,4,5-tetrahydro-1H-benzofuro[3,2-c]azepine], the EC50 in assay [1] (benzofurans) is > 10 µM. Besides, in assay [2] (benzofurans), the IC50 was > 10 µM.

In assay [1] (benzothiophenes), `FC(F)(F)Oc1cccc2sc3c(c12)CCN(C1CCC1)CC3` [Compound 68, 3-cyclobutyl-10-(trifluoromethoxy)-2,3,4,5-tetrahydro-1H-benzo[4,5]thieno[2,3-d]azepine] yielded a concentration giving a half-maximal response (EC50) of 1 to 10 µM. Moreover, in assay [2] (benzothiophenes), the IC50 was in the range of 1 to 10 µM.

Take `FC(F)(F)c1ccc2c3c(oc2c1)CCCNC3` [Compound 48, 8-(trifluoromethyl)-2,3,4,5-tetrahydro-1H-benzofuro[3,2-c]azepine]: the EC50 in assay [1] (benzofurans) was in the range of 1 to 10 µM. Besides, in assay [2] (benzofurans), the IC50 lay within 1 to 10 µM.

As to `Fc1cccc2oc3c(c12)CN(CC(F)(F)F)CCC3` [Compound 5, 10-fluoro-2-(2,2,2-trifluoroethyl)-2,3,4,5-tetrahydro-1H-benzofuro[3,2-c]azepine], in assay [1] (benzofurans), the EC50 is > 10 µM. Further, the IC50 in assay [2] (benzofurans) is > 10 µM.

Take `Fc1ccc2c3c(sc2c1)CCNCC3` [Compound 46, 8-fluoro-2,3,4,5-tetrahydro-1H-benzo[4,5]thieno[2,3-d]azepine]: the EC50 in assay [1] (benzothiophenes) is < 0.01 µM. In addition, the IC50 in assay [2] (benzothiophenes) lay within 0.01 to 0.1 µM.

In the case of `COc1ccc2c3c(oc2c1)CCN(C1CCC1)CC3` [Compound 25, 3-cyclobutyl-8-methoxy-2,3,4,5-tetrahydro-1H-benzofuro[2,3-d]azepine], the EC50 in assay [1] (benzofurans) was > 10 µM. Besides, in assay [2] (benzofurans), the IC50 is > 10 µM.

In assay [1] (benzofurans), `c1ccc2c3c(oc2c1)CCNCC3` [Compound 31, 2,3,4,5-tetrahydro-1H-benzofuro[2,3-d]azepine] showed an EC50 of 0.101 to 1 µM. In addition, the IC50 in assay [2] (benzofurans) was 0.101 to 1 µM.

Take `CN1CCc2oc3cc(C(F)(F)F)ccc3c2CC1` [Compound 39, 3-methyl-8-(trifluoromethyl)-2,3,4,5-tetrahydro-1H-benzofuro[2,3-d]azepine]: the EC50 in assay [1] (benzofurans) is > 10 µM. Further, the IC50 in assay [2] (benzofurans) was in the range of 1 to 10 µM.

Turning to `Fc1ccc2c3c(oc2c1)CCCNC3` [Compound 6, 8-fluoro-2,3,4,5-tetrahydro-1H-benzofuro[3,2-c]azepine], in assay [1] (benzofurans), the concentration giving a half-maximal response (EC50) was in the range of 1 to 10 µM. Besides, in assay [2] (benzofurans), the IC50 is > 10 µM.

In assay [1] (benzothiophenes), `FC(F)(F)Oc1cccc2sc3c(c12)CCNCC3` [Compound 67, 10-(trifluoromethoxy)-2,3,4,5-tetrahydro-1H-benzo[4,5]thieno[2,3-d]azepine] had an EC50 of 0.01 to 0.1 µM. Further, the IC50 in assay [2] (benzothiophenes) was in the range of 0.01 to 0.1 µM.

Regarding `Fc1cccc2oc3c(c12)CN(C1CCC1)CCC3` [Compound 1, 2-cyclobutyl-10-fluoro-2,3,4,5-tetrahydro-1H-benzofuro[3,2-c]azepine], the EC50 in assay [1] (benzofurans) was > 10 µM. Moreover, the IC50 in assay [2] (benzofurans) is > 10 µM.

On to `COc1ccc2c3c(sc2c1)CCN(C1CCC1)CC3` [Compound 74, 3-cyclobutyl-8-methoxy-2,3,4,5-tetrahydro-1H-benzo[4,5]thieno[2,3-d]azepine], for which, in assay [1] (benzothiophenes), the EC50 is > 10 µM. Moreover, the IC50 in assay [2] (benzothiophenes) was > 10 µM.

Consider `COc1ccc2c3c(oc2c1)CCCN(C1CCC1)C3` [Compound 12, 2-cyclobutyl-8-methoxy-2,3,4,5-tetrahydro-1H-benzofuro[3,2-c]azepine], for which the EC50 in assay [1] (benzofurans) was > 10 µM. In assay [2] (benzofurans), the IC50 is > 10 µM.

Consider `FC(F)(F)CN1CCc2oc3ccccc3c2CC1` [Compound 29, 3-(2,2,2-trifluoroethyl)-2,3,4,5-tetrahydro-1H-benzofuro[2,3-d]azepine], for which, in assay [1] (benzofurans), the EC50 is > 10 µM. Further, the IC50 in assay [2] (benzofurans) is > 10 µM.

In the case of `Fc1cccc2oc3c(c12)CCNCC3` [Compound 10, 10-fluoro-2,3,4,5-tetrahydro-1H-benzofuro[2,3-d]azepine], the EC50 in assay [1] (benzofurans) fell in the range of 0.101 to 1 µM. Moreover, the IC50 in assay [2] (benzofurans) fell in the range of 0.101 to 1 µM.

In the case of `CN1CCCc2oc3cc(OCc4ccccc4)ccc3c2C1` [Compound 54, 8-(benzyloxy)-2-methyl-2,3,4,5-tetrahydro-1H-benzofuro[3,2-c]azepine], the half-maximal effective concentration (EC50) in assay [1] (benzofurans) was > 10 µM. In assay [2] (benzofurans), the IC50 was 0.101 to 1 µM.

For the molecule `FC(F)(F)CN1CCCc2oc3ccccc3c2C1` [Compound 13, 2-(2,2,2-trifluoroethyl)-2,3,4,5-tetrahydro-1H-benzofuro[3,2-c]azepine], the EC50 in assay [1] (benzofurans) is > 10 µM. Further, the IC50 in assay [2] (benzofurans) is > 10 µM.

Molecule `CN1CCc2oc3cccc(F)c3c2CC1` [Compound 3, 10-fluoro-3-methyl-2,3,4,5-tetrahydro-1H-benzofuro[2,3-d]azepine] yielded an EC50 in assay [1] (benzofurans) of 0.101 to 1 µM. The IC50 in assay [2] (benzofurans) lay in the range of 0.101 to 1 µM.

Consider `c1ccc(COc2cccc3oc4c(c23)CNCCC4)cc1` [Compound 51, 10-(benzyloxy)-2,3,4,5-tetrahydro-1H-benzofuro[3,2-c]azepine], for which the EC50 in assay [1] (benzofurans) is > 10 µM. In addition, the IC50 in assay [2] (benzofurans) was in the range of 1 to 10 µM.

Turning to `c1ccc(COc2ccc3c4c(sc3c2)CCN(C2CCC2)CC4)cc1` [Compound 78, 8-(benzyloxy)-3-cyclobutyl-2,3,4,5-tetrahydro-1H-benzo[4,5]thieno[2,3-d]azepine], the EC50 in assay [1] (benzothiophenes) is > 10 µM. Moreover, the IC50 in assay [2] (benzothiophenes) lay within 1 to 10 µM.

With `COc1ccc2c3c(oc2c1)CCN(C)CC3` [Compound 26, 8-methoxy-3-methyl-2,3,4,5-tetrahydro-1H-benzofuro[2,3-d]azepine], the EC50 in assay [1] (benzofurans) was > 10 µM. Further, the IC50 in assay [2] (benzofurans) was 1 to 10 µM.

For the molecule `c1ccc2c3c(oc2c1)CCCN(C1CCC1)C3` [Compound 20, 2-cyclobutyl-2,3,4,5-tetrahydro-1H-benzofuro[3,2-c]azepine], the EC50 in assay [1] (benzofurans) was > 10 µM. Further, the IC50 in assay [2] (benzofurans) is > 10 µM.

For `c1ccc(COc2ccc3c4c(sc3c2)CCNCC4)cc1` [Compound 77, 8-(benzyloxy)-2,3,4,5-tetrahydro-1H-benzo[4,5]thieno[2,3-d]azepine], in assay [1] (benzothiophenes), the EC50 was > 10 µM. In assay [2] (benzothiophenes), the IC50 was in the range of 1 to 10 µM.

For the molecule `FC(F)(F)CN1CCc2sc3ccccc3c2CC1` [Compound 69, 3-(2,2,2-trifluoroethyl)-2,3,4,5-tetrahydro-1H-benzo[4,5]thieno[2,3-d]azepine], the EC50 in assay [1] (benzothiophenes) was > 10 µM. The IC50 in assay [2] (benzothiophenes) was > 10 µM.

`Fc1cccc2oc3c(c12)CCN(C1CCC1)CC3` [Compound 2, 3-cyclobutyl-10-fluoro-2,3,4,5-tetrahydro-1H-benzofuro[2,3-d]azepine] displayed an EC50 in assay [1] (benzofurans) of 1 to 10 µM. For the same molecule, the IC50 in assay [2] (benzofurans) lay in the range of 1 to 10 µM.

`COc1ccc2c3c(sc2c1)CCN(CC(F)(F)F)CC3` [Compound 70, 8-methoxy-3-(2,2,2-trifluoroethyl)-2,3,4,5-tetrahydro-1H-benzo[4,5]thieno[2,3-d]azepine]: in assay [1] (benzothiophenes), the EC50 is > 10 µM. In addition, the IC50 in assay [2] (benzothiophenes) was > 10 µM.

These data come from patent US20250051346A1 (priority 2021, published 2025).
